{"source": "paper PMC8152350", "about": "“High cytotoxicity of betulin towards fish and murine fibroblasts: Is betulin safe for nonneoplastic cells?” (BMC Veterinary Research, 2021)", "key": {"[1]": {"experiment": "NRU assay (lysosomal membrane integrity), murine fibroblasts", "format": "cell-based, mouse", "details": "mouse, NIH/3T3 embryonic fibroblasts, n = 3", "experimental": "(§1) All experiments were repeated three times.\n(§2) The NRU assay evaluates lysosomal membrane integrity. It measures neutral red dye accumulation within lysosomes of viable cells.\n(§3) The NRU assay was performed using a commercially available kit (TOX4) (Sigma-Aldrich, Poland) according to the manufacturer’s protocol. The full description of the test procedure was also provided in a published article."}, "NIH/3T3 cells [2]": {"tested_on": "NIH/3T3 cells", "experiment": "NRU assay (lysosomal membrane integrity), murine fibroblasts", "format": "cell-based, mouse", "details": "NIH/3T3, beginning at 48 h", "experimental": "as §1, §2, §3"}, "BF-2 cells [3]": {"tested_on": "BF-2 cells", "experiment": "NRU assay (lysosomal membrane integrity), fish fibroblasts", "format": "cell-based, bluegill", "details": "BF-2, regardless of the time of incubation", "experimental": "(§4) BF-2 (ATCC CCL-91) bluegill caudal trunk fibroblasts were grown in minimum essential medium (Eagle, EBSS) supplemented with 1 % nonessential amino acids (NEAAs), 10 % foetal bovine serum and 1 % antibiotic-antimycotic solution at 23 °C in a humidified atmosphere with 5 % CO2.\nas §1, §2, §3"}, "in vitro": {"experiment": "in vitro", "format": "cell-based, mouse", "details": "mouse", "experimental": "as §1\n(§5) The sulforhodamine B colorimetric assay measures the cellular protein content, and the assay results are proportional to the number of cells.\n(§6) The SRB assay was performed using a commercially available kit (TOX6) (Sigma-Aldrich, Poland) according to the manufacturer’s protocol. In this assay, SRB binds to protein components of trichloroacetic acid-fixed cells, and the protein-bound dye is extracted with Tris. The results obtained are presented as the percentage of the total cellular protein content in control (nontreated) cells."}, "NIH/3T3 cells [4]": {"tested_on": "NIH/3T3 cells", "experiment": "in vitro", "format": "cell-based, mouse", "details": "NIH/3T3, 72 h", "experimental": "as §1, §5, §6"}, "[5]": {"experiment": "SRB assay (total cellular protein content), fish fibroblasts", "format": "cell-based, bluegill", "details": "bluegill, BF-2 caudal trunk fibroblasts, n = 3", "experimental": "as §4, §1, §5, §6"}, "BF-2 cells [6]": {"tested_on": "BF-2 cells", "experiment": "SRB assay (total cellular protein content), fish fibroblasts", "format": "cell-based, bluegill", "details": "BF-2", "experimental": "as §4, §1, §5, §6"}, "BF-2 cells [7]": {"tested_on": "BF-2 cells", "experiment": "LDH leakage assay (cellular membrane integrity), fish fibroblasts", "format": "cell-based, bluegill", "details": "BF-2, 24 h", "experimental": "as §4, §1\nThe LDH assay measures leakage of the stable cytosolic enzyme lactate dehydrogenase into the culture medium, which is an indicator of irreversible cell membrane damage and cell death.\nThe LDH assay was performed using a commercially available kit (TOX7) (Sigma-Aldrich, Poland) according to the manufacturer’s protocol. The full description of the test procedure was also reported previously. The results obtained are reported as the percentage of LDH leakage to the culture media in control (nontreated) cells."}, "[8]": {"tested_on": "veterinary pathogens, both bacterial and viral", "experiment": "Antimicrobial activity towards veterinary pathogens (data not shown)"}, "[9]": {"tested_on": "B16 cells (B164A5 and B16F10)", "parameters": "method as in PMID 25756279", "details": "150 µM betulin; cited from earlier work"}, "[10]": {"tested_on": "human lung fibroblasts (WI 38)", "parameters": "method as in PMID 12697374", "details": "WI 38, trypan blue exclusion, 72 h, cited from earlier work"}, "[11]": {"tested_on": "human skin fibroblasts (WS1)", "parameters": "method as in PMID 16787747", "details": "WS1, resazurin reduction test, 48 h, cited from earlier work"}, "HL60": {"tested_on": "HL60", "parameters": "method as in PMID 12697374", "details": "HL60 leukaemia; read-out: IC50 of betulin; cited from earlier work"}, "U937": {"tested_on": "U937", "parameters": "method as in PMID 12697374", "details": "U937 leukaemia; read-out: IC50 of betulin; cited from earlier work"}, "K562": {"tested_on": "K562", "parameters": "method as in PMID 12697374", "details": "K562 leukaemia; read-out: IC50 of betulin; cited from earlier work"}, "G361": {"tested_on": "G361", "parameters": "method as in PMID 12697374", "details": "G361 melanoma; read-out: IC50 of betulin; cited from earlier work"}, "SK-MEL-28": {"tested_on": "SK-MEL-28", "parameters": "method as in PMID 12697374", "details": "SK-MEL-28 melanoma; read-out: IC50 of betulin; cited from earlier work"}, "GOTO": {"tested_on": "GOTO", "parameters": "method as in PMID 12697374", "details": "GOTO neuroblastoma; read-out: IC50 of betulin; cited from earlier work"}, "A-549": {"tested_on": "A-549", "parameters": "method as in PMID 16787747", "details": "read-out: IC50 of betulin; cited from earlier work"}, "DLD-1": {"tested_on": "DLD-1", "parameters": "method as in PMID 16787747", "details": "read-out: IC50 of betulin; cited from earlier work"}, "MCF-7 (breast cancer)": {"tested_on": "MCF-7 (breast cancer)", "parameters": "method as in PMID 22627971, PMID 23379693", "details": "MCF-7, 20 µM; cited from earlier work"}, "A375 (melanoma)": {"tested_on": "A375 (melanoma)", "parameters": "method as in PMID 22627971, PMID 23379693", "details": "A375, 20 µM; cited from earlier work"}, "CCRF/CEM (leukaemia)": {"tested_on": "CCRF/CEM (leukaemia)", "parameters": "method as in PMID 23595090", "details": "MTT assay; cited from earlier work"}, "P388 (murine leukaemia)": {"tested_on": "P388 (murine leukaemia)", "parameters": "method as in PMID 23595090", "details": "P388, MTT assay; cited from earlier work"}, "porcine chondrocytes": {"tested_on": "porcine chondrocytes", "details": "cited from earlier work"}, "[12]": {"tested_on": "human skin fibroblasts (HSF)", "details": "24-h exposure, cited from earlier work"}}, "note": "Where two headings read alike, the source gives them in different places."}
{"smiles": "C=C(C)[C@@H]1CC[C@]2(CO)CC[C@]3(C)[C@H](CC[C@@H]4[C@@]5(C)CC[C@H](O)C(C)(C)[C@@H]5CC[C@]43C)[C@@H]12", "note": "[betulin, Betulin]", "values": [{"measurement": "CC50 at 24 h", "setting": "[1]; NIH/3T3, 24 h, read-out: CC50 betulin NRU 24 h", "value": "> 15.6", "unit": "µg/mL"}, {"measurement": "CC50 at 48 h", "setting": "[1]; NIH/3T3, 48 h, mean ± SD, read-out: CC50 betulin NRU 48 h", "value": "7.33 ± 2.94", "unit": "µg/mL"}, {"measurement": "CC50 at 72 h", "setting": "[1]; NIH/3T3, 72 h, mean ± SD, read-out: CC50 betulin NRU 72 h", "value": "13 ± 2.94", "unit": "µg/mL"}, {"measurement": "betulin concentration causing considerable decrease in viability (NRU)", "setting": "NIH/3T3 cells [2]", "value": "≥ 3.9", "unit": "µg/mL"}, {"measurement": "betulin concentration causing considerable decrease in viability (NRU)", "setting": "BF-2 cells [3]", "value": "at least 15.625 µg/mL"}, {"measurement": "CC50", "setting": "in vitro; NIH/3T3, 24 h, mean ± SD, n = 3, read-out: CC50 betulin SRB 24 h", "value": "10.9 ± 7.34", "unit": "µg/mL"}, {"measurement": "CC50", "setting": "in vitro; NIH/3T3, 48 h, mean ± SD, n = 3, read-out: CC50 betulin SRB 48 h", "value": "4.05 ± 1.24", "unit": "µg/mL"}, {"measurement": "CC50", "setting": "in vitro; NIH/3T3, 72 h, mean ± SD, n = 3, read-out: CC50 betulin SRB 72 h", "value": "3.76 ± 0.572", "unit": "µg/mL"}, {"measurement": "CC50", "setting": "in vitro; NIH/3T3, depending on incubation time (24-72 h), read-out: CC50 of betulin in SRB assay, range over incubation times", "value": "3.76 to 10.9", "unit": "µg/mL"}, {"measurement": "betulin concentration causing considerable decrease in total cellular protein content (SRB)", "setting": "NIH/3T3 cells [4]", "value": "≥ 1.95", "unit": "µg/mL"}, {"measurement": "CC50 at 24 h", "setting": "[5]; BF-2, 24 h, read-out: CC50 betulin SRB 24 h", "value": "> 31.2", "unit": "µg/mL"}, {"measurement": "CC50 at 48 h", "setting": "[5]; BF-2, 48 h, read-out: CC50 betulin SRB 48 h", "value": "> 31.2", "unit": "µg/mL"}, {"measurement": "CC50 at 72 h", "setting": "[5]; BF-2, 72 h, read-out: CC50 betulin SRB 72 h", "value": "> 31.2", "unit": "µg/mL"}, {"measurement": "betulin concentration causing considerable decrease in the number of cells (SRB)", "setting": "BF-2 cells [6]", "value": "at least 15.625 µg/mL"}, {"measurement": "betulin concentration inducing substantial LDH leakage", "setting": "BF-2 cells [7]", "value": 7.8, "unit": "µg/mL"}, {"measurement": "antimicrobial activity towards tested veterinary pathogens", "setting": "[8]", "value": "did not confirm the antimicrobial activity"}, {"measurement": "trypan blue exclusion capacity", "setting": "[9]", "value": 60, "unit": "%"}, {"measurement": "IC50 of betulin, converted", "setting": "[10]; conversion of µM value", "value": "ca. 6.75 µg/ml"}, {"measurement": "IC50", "setting": "[10]; read-out: IC50 of betulin", "value": 15.2, "unit": "µM"}, {"measurement": "IC50 of betulin, converted", "setting": "[11]; conversion of µM value", "value": "ca. 1.6 µg/ml"}, {"measurement": "IC50", "setting": "[11]; read-out: IC50 of betulin", "value": 3.58, "unit": "µM"}, {"measurement": "IC50", "setting": "HL60", "value": 14.7, "unit": "µM"}, {"measurement": "IC50", "setting": "U937", "value": 14.4, "unit": "µM"}, {"measurement": "IC50", "setting": "K562", "value": 14.5, "unit": "µM"}, {"measurement": "IC50", "setting": "G361", "value": 12.4, "unit": "µM"}, {"measurement": "IC50", "setting": "SK-MEL-28", "value": 16.2, "unit": "µM"}, {"measurement": "IC50", "setting": "GOTO", "value": 17.1, "unit": "µM"}, {"measurement": "IC50", "setting": "A-549", "value": 3.8, "unit": "µM"}, {"measurement": "IC50", "setting": "DLD-1", "value": 6.6, "unit": "µM"}, {"measurement": "inhibitory activity of betulin", "setting": "MCF-7 (breast cancer)", "value": 53.2, "unit": "%"}, {"measurement": "inhibitory activity of betulin", "setting": "A375 (melanoma)", "value": 33.9, "unit": "%"}, {"measurement": "IC50 of betulin", "setting": "CCRF/CEM (leukaemia)", "value": 10.9, "unit": "µg/mL"}, {"measurement": "IC50 of betulin", "setting": "P388 (murine leukaemia)", "value": 5.5, "unit": "µg/mL"}, {"measurement": "betulin concentration causing considerable decrease in viability (MTT)", "setting": "porcine chondrocytes", "value": 0.02, "unit": "µg/mL"}, {"measurement": "betulin concentrations causing considerable LDH leakage, converted", "setting": "[12]; conversion of µM value", "value": "≥ 4.4", "unit": "µg/mL"}, {"measurement": "betulin concentrations not toxic, converted", "setting": "[12]; conversion of µM value", "value": "≤ 2.2", "unit": "µg/mL"}, {"measurement": "betulin concentrations causing considerable LDH leakage", "setting": "[12]", "value": "≥ 10", "unit": "µM"}, {"measurement": "betulin concentrations not toxic", "setting": "[12]", "value": "up to 5 µM"}]}
